These results are taken from ChEMBL document CHEMBL1201862, “PubChem BioAssay data set” (2004).

A word on the AC50: it is the concentration giving half of the maximal activity seen. Usually EC50 stands for the concentration giving half of the maximal effect. As a reminder, the IC50 is the concentration at which inhibition is half-maximal. The CC50 is the concentration giving 50% cytotoxicity.

The target in one experiment is Cytochrome P450 3A4 (Homo sapiens, UniProt P08684). The settings on record: Potency.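 Further: confirmatory qHTS run detecting inhibitors and substrates of CYP3A4.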
The next experiment concerns the target Beta-galactosidase (Escherichia coli, UniProt Q8VNN2). Kind of experiment: PubChem AID 485352. Type of experiment: functional.
The target in experiment [1] is T1, Type-1 angiotensin II receptor (Homo sapiens, UniProt P30556).
T1 sequence (P30556 whole entry): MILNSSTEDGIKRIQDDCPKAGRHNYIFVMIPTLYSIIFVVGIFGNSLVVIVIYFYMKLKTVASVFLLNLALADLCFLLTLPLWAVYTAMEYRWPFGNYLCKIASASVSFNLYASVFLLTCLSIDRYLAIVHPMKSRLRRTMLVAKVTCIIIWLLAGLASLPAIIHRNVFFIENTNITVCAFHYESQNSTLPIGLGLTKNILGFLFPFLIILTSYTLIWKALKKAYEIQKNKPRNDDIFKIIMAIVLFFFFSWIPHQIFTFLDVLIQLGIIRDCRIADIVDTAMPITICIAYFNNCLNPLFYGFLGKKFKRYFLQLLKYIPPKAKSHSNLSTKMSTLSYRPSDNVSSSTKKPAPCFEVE
The experiment in a line: antagonism of angiotensin II type 1 receptor – cell-based, uHTS hits, selectivity assay for APJ receptor antagonist project, dose response (AID 463214).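 Further: antagonist potency against angiotensin II stimulated AT1 response.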 Type of experiment: functional.

Experiment [2] can be described thus: alpha-synuclein stem-loop luciferase translation blockers – H4 neuroglioma cells, luminescence, confirmation (AID 1988). Type of experiment: functional, cell-based.
A further experiment concerns Vero. The experiment in a line: cells. Format: functional. The note with it: Chlorocebus sabaeus.
A short description of experiment [3]: luciferase reporter signal suppression in cells – H4 neuroglioma cells, luminescence, dose response (AID 1990). Type of experiment: functional, cell-based. In general terms: In a reporter assay the amount or activity of a reporter protein is the signal.
For experiment [4], the target named is T2, High affinity choline transporter 1 (Homo sapiens, UniProt Q9GZV3).
T2 sequence (Q9GZV3 whole entry): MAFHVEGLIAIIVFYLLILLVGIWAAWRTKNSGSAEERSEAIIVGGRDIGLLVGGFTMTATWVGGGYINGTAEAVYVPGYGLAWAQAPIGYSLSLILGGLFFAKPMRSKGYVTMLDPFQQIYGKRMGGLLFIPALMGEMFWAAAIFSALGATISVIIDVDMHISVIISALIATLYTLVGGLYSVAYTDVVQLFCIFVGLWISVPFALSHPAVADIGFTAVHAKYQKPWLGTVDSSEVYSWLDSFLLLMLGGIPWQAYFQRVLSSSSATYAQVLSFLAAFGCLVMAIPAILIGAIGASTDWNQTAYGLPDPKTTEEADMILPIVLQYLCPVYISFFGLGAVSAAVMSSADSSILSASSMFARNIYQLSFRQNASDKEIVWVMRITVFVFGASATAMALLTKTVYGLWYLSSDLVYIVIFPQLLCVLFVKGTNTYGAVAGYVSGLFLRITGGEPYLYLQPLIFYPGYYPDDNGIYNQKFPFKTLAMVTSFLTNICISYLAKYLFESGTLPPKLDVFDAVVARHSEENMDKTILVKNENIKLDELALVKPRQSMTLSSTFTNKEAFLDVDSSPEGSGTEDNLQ
Kind of experiment: human choline transporter blockers, potency – cell-based, 5-point CRC, membrane potential dye, dose response (AID 504840). Format: functional.

Experiment [5] concerns the target T3, Ubiquitin-conjugating enzyme E2 N (Homo sapiens, UniProt P61088).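 Further: Dose-response confirmation in a TR-FRET assay detecting UBC13-driven polyubiquitin chain formation, inhibition measured.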
T3 sequence (P61088 whole entry): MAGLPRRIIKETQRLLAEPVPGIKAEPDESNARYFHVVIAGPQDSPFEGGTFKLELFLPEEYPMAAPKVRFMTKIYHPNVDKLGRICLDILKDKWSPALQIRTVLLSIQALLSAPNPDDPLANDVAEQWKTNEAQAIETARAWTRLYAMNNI
Type of experiment: functional.

A further experiment can be described thus: cells. Type of experiment: functional.
A short description of experiment [6]: blockers of bursicon-stimulated LGR2 cAMP reporter – cell-based, HEK293, CRE-luciferase reporter, cherry pick, set 2, dose response (AID 743343).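 Further: transfected cells were stimulated with diluted bursicon conditioned medium after compound addition.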 Format: functional.
Experiment [7] can be described thus: blockade of melanocortin 4 receptor signaling – cell-based, plate reader, cherry pick, counter-screen for LGR2 antagonist project, dose response (AID 743444).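 Further: transfected HEK 293 cells stimulated with alpha-MSH peptide; potency of inhibitors of the alpha-MSH evoked signal.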 Format: functional. (A counterscreen serves to expose hits that act by an unwanted route or on another target.)
A short description of experiment [8]: growth inhibition of PfATP4-mutant resistant parasites – NITD609-resistant line, SYBR Green, dry powder, dose response (AID 1159571).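 Further: parasites synchronized at ring stage by sorbitol before testing.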 Format: functional, cell-based.
Experiment [9] in a line: Dd2 malaria parasite growth inhibition potency – SYBR Green, dry powder samples, dose response (AID 1159566).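 Further: potency for growth inhibition with lower SYBR green DNA signal.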 Format: functional, cell-based.
A short description of experiment [10]: growth inhibition of yeast DHODH-expressing 3D7 parasites – SYBR Green, dry powder samples, dose response (AID 1159570).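 Further: parasite growth measured after 72 hours of compound exposure.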 Format: functional, cell-based.
The nature of experiment [11]: P. falciparum Dd2 growth inhibitors, dose response, SYBR Green, cherry-picked samples (AID 1159567). Type of experiment: functional, cell-based.

Active and inactive are the calls of the source.

Chain of Cytochrome P450 3A4 (P08684 whole entry): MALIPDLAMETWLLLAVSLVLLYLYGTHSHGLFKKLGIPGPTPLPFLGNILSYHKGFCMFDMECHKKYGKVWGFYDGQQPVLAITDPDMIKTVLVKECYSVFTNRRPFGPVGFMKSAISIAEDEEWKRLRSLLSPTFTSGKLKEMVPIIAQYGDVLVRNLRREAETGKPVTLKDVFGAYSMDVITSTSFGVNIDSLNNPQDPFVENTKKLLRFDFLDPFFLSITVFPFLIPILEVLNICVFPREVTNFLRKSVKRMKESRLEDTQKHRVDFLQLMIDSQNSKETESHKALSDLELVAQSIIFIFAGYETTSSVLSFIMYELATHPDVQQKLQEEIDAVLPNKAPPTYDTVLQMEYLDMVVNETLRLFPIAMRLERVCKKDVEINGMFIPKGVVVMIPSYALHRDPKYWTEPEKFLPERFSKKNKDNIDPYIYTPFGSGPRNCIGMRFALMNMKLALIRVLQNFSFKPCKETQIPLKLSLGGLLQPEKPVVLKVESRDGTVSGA
Chain of Beta-galactosidase (Q8VNN2 whole entry): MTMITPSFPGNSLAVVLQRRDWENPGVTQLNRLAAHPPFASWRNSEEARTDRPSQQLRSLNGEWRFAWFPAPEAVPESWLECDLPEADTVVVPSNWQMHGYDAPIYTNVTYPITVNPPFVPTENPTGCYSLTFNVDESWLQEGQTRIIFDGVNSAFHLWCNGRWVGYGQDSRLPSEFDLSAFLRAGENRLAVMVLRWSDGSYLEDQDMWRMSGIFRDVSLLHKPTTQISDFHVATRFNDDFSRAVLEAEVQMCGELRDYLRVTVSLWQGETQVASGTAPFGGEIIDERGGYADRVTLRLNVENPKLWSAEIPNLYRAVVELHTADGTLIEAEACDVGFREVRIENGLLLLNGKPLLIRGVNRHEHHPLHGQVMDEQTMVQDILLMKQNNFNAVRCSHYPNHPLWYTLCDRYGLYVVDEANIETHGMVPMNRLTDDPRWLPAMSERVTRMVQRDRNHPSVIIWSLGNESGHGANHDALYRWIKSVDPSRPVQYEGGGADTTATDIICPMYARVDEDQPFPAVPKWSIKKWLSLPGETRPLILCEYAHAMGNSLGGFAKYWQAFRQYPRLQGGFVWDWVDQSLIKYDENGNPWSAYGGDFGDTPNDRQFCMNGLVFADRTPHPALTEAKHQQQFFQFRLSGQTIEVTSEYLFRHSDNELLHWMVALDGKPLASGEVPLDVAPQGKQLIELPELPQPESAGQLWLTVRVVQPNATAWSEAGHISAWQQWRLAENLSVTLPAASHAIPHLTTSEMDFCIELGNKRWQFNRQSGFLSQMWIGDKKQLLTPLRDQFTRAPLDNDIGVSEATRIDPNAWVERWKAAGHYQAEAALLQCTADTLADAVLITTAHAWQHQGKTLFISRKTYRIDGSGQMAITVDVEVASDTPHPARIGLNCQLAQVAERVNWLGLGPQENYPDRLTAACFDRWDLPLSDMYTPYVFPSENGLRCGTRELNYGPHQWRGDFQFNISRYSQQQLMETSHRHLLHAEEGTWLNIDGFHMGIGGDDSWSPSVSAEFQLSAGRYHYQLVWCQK

In the case of `CCCCCC[C@H]1C(=O)O[C@H](C)[C@H](NC(=O)c2cccc(NC=O)c2O)C(=O)O[C@@H](C)[C@@H]1OC(=O)CC(C)C` [ANTIMYCIN A], the half-maximal activity concentration (AC50) on Cytochrome P450 3A4 was 6.31 µM (inconclusive). As to `SC1=NCCc2ccccc2C1c1ccccc1Cl` (configuration not stated), at Beta-galactosidase, the EC50 is > 40 µM (inactive). Moreover, the concentration for half-maximal inhibition (IC50) in experiment [1] is 13.8 µM (active). Take `NC(=O)c1oc2ccccc2c1NC(=O)c1ccc([N+](=O)[O-])o1`: the EC50 in experiment [2] was 4.08 µM (active); in experiment [3], 8.49 µM (active). Also, the CC50 with Vero was 5.74 µM (active). In the case of `CC(C)=CCCC1(C)C=Cc2c(O)c3c(c(CC=C(C)C)c2O1)OC12C(=CC4CC1C(C)(C)OC2(C/C=C(/C)C(=O)O)C4=O)C3=O` (configuration not stated), the AC50 on Cytochrome P450 3A4 was 39.8 µM (inconclusive).

`FC(F)(F)c1cccc(Sc2nc(-c3ccccc3)nnc2C(F)(F)F)c1`: on Beta-galactosidase, the EC50 is > 40 µM (inactive). Further, the concentration for half-maximal inhibition (IC50) in experiment [1] is reported as 21.4 µM (not active). In the case of `NC(=O)c1ccccc1` [BENZAMIDE], the AC50 on Cytochrome P450 3A4 is 0.005 µM (inconclusive). As for `CC(C)CCN1CCc2nc(-c3ccccc3)c3c(c2C1)COC(C)C3` (configuration not stated), at Cytochrome P450 3A4, the AC50 is 3.16 µM (inconclusive).

As for `O=C1/C(=C/c2cccc(Cl)c2)SC(=S)N1CCC(=O)N1CCCCC1CCO` (configuration not stated), the CC50 in the experiment on Vero is 19.9 µM (active). With `O=C1NC(c2ccccc2)=C(c2ccc3ccccc3n2)C(c2ccncc2)N1` (configuration not stated), in experiment [4], the IC50 is 4.57 µM (active).

As to `CC1CCCCC1NC(=O)c1ccc(S(=O)(=O)NCC2CCCO2)cc1` (configuration not stated), in experiment [4], the IC50 is 12.3 µM (active). As to `Cc1ccccc1/C=C/C(=O)NCC(=O)N1CCC(N(C)C2CCCCC2C)CC1` (configuration not stated), the half-inhibitory concentration (IC50) in experiment [4] is 14.5 µM (active).

As to `CN(C)CCCN(C(=O)C1=COCCO1)c1nc2ccc(Br)cc2s1`, the half-maximal cytotoxic concentration (CC50) in the experiment with Vero was > 25 µM (active). As for `O=C(COc1ccc(Cl)cc1)NNC(=O)c1ccccn1`, the IC50 in [5] is > 20 µM (inactive); in “cells” it was 6.74 µM (active). Consider `CC(=O)OC1CCC2C3CCc4cc(O)ccc4C3CCC12C` (configuration not stated), for which the AC50 at Cytochrome P450 3A4 is 39.8 µM (inconclusive). As for `CNC(=O)Oc1cccc(-c2cn3cc(Cl)ccc3n2)c1`, the figures for the AC50 in experiment [6] and in experiment [7] were 15.8 µM (active) and 18.6 µM (active), respectively.

For `FC(F)(F)c1ccc(CN2C[C@@H]3C(c4ccccc4)C4(c5ccccc5)CC3(C4)[C@H]2c2ccccc2)cc1` (some centres not stated), the half-maximal activity concentration (AC50) on Cytochrome P450 3A4 is 15.8 µM (inconclusive). For the molecule `Cc1ccc(C(=O)CNc2ccccc2C)cc1`, the EC50 on Beta-galactosidase was > 40 µM (inactive). Also, the half-inhibitory concentration (IC50) in [1] was 8.2 µM (active). In the case of `Cc1ccnc(NS(=O)(=O)c2ccc(NC(=O)c3ccc(Cl)cc3[N+](=O)[O-])cc2)n1`, the IC50 in [4] is 13.2 µM (active). With `O=C(Cn1cc(C(=O)c2cccs2)c2ccccc21)NC1CCCCC1`, the IC50 in [5] is > 20 µM (inactive).

Take `C/C=C/c1ccc2c(c1)[C@H]1[C@H](CCN1S(=O)(=O)c1ccccc1C)[C@@H](CO)N2`: the AC50 in experiment [8] was 0.942 µM (active); in experiment [9], 1.18 µM (active); in experiment [10], 1.46 µM (active); in [11], 1.83 µM (active). Consider `CC(=O)Nc1ccc(NC(=O)CCC(=O)OCC(=O)c2ccc(C)c([N+](=O)[O-])c2)cc1`, for which the EC50 at Beta-galactosidase was > 40 µM (inactive). For the same molecule, the half-maximal inhibitory concentration (IC50) in experiment [1] is reported as > 40 µM (not active).
